In article PMC5094908 (Journal of applied toxicology : JAT, 2016):
Where two headings read alike, the source gives them in different places.

Assays:
LUHMES and dLUHMES cells [1] = tested on: LUHMES and dLUHMES cells
SH-SY5Y = conditions: cited from earlier work
[2] = tested on: Caspase 3/7 activity in SH-SY5Y and dSH-SY5Y cells; experiment: Caspase-Glo 3/7 luminescence assay, 24 h; assay type: cell-based
[3] = tested on: Caspase 3/7 activity in NSC and dNSC cells; assay type: cell-based, human; conditions: 24 h, threshold […] above control
NSC and dNSC cells = conditions: 24 h exposure, [ATP], 0.78 to 100 µM
LUHMES and dLUHMES cells [4] = conditions: 6 h, 6HD 1 µM

SMILES | cytotoxic sensitivity ([ATP] IC50) of LUHMES and/or dLUHMES relative to the other cell lines (LUHMES and dLUHMES cells [1]) | In vitro neural selectivity (effect reported in SH-SY5Y) (SH-SY5Y) | peak Caspase 3/7 activities, ranking among compounds [2] | increase of Caspase 3/7 activity in dNSC [3] | cytotoxic sensitivity ([ATP] IC50) of LUHMES and/or dLUHMES relative to the other cell lines (LUHMES and dLUHMES cells [1]; 24 h exposure, 0.78 to 100 µM, vs SH-SY5Y/dSH-SY5Y and NSC/dNSC) | relative cytotoxic sensitivity of LUHMES versus dLUHMES cells (LUHMES and dLUHMES cells [1]; 24 h exposure, [ATP], 0.78 to 100 µM) | relative cytotoxic sensitivity of NSC versus dNSC (NSC and dNSC cells) | expression of a series of apoptosis-related genes (LUHMES and dLUHMES cells [4]; LUHMES) | expression of BCL2A1 and IL10 (LUHMES and dLUHMES cells [4]; dLUHMES) | expression of a series of apoptosis-related genes (LUHMES and dLUHMES cells [4]; dLUHMES)
O=c1c(O)c(-c2ccc(O)c(O)c2)oc2cc(O)cc(O)c12 [QRC, Quercetin] | more sensitive than the other cell lines | Toxic or protective in SH- SY5Y ([Ossola et al., 2008]) | – | – | – | – | – | – | – | –
NCCc1cc(O)c(O)cc1O [6HD, 6-hydroxydopamine] | – | – | highest activities | but not dNSC | more sensitive than the other cell lines | dLUHMES cells were markedly more sensitive than LUHMES cells | NSC more sensitive than dNSC | not observed | increased expression | increased expression
